This note sets out measurements from PubChem BioAssay (NCI).

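Five compound concentrations were applied to cells in 96-well plates for 48 hours; endpoints were derived by simple linear interpolation of the resulting dose-response curve. At the GI50, growth is halved. At the TGI there is no net growth.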

Test systems include HCC-2998 colon; RPMI-8226 leukemia; NCI-H226 lung; OVCAR-8 ovarian; SK-MEL-5 melanoma; LOX IMVI melanoma; OVCAR-3 ovarian; K-562 leukemia; HOP-62 NSCLC; EKVX NSCLC.
What all share (experiment): NCI tumour cell line growth inhibition, 48 h

As to `O=C1CCCC/C1=C/C=C/c1ccccc1`, the TGI in the assay on HCC-2998 colon, in the assay on RPMI-8226 leukemia, in the assay on NCI-H226 lung, in the assay on OVCAR-8 ovarian, in the assay with SK-MEL-5 melanoma and in the assay on LOX IMVI melanoma was over 100 µM each time. The TGI in the assay with OVCAR-3 ovarian and in the assay with K-562 leukemia was over 100 µM throughout.

As to `O=c1ccccc2cccc(O)c12`, the TGI with HCC-2998 colon, with RPMI-8226 leukemia, in the assay on OVCAR-8 ovarian, in the assay with HOP-62 NSCLC, with EKVX NSCLC and in the assay on SK-MEL-5 melanoma was over 100 µM each time. For the same compound, the TGI with LOX IMVI melanoma, with OVCAR-3 ovarian and in the assay on K-562 leukemia was over 100 µM throughout.

Consider `COc1ccc2c(c1)CC[C@@H]1[C@@H]2CC[C@@]2(C)[C@H]1CC1(CCCCC1)[C@@H]2O`, for which the GI50 with HCC-2998 colon is 14100 nM; in the assay on RPMI-8226 leukemia it was 2810 nM; in the assay on NCI-H226 lung, 20.2 µM; in the assay on OVCAR-8 ovarian, 19000 nM; in the assay on HOP-62 NSCLC, 18300 nM; in the assay with EKVX NSCLC, 18.3 µM. For the same compound, the GI50 in the assay with SK-MEL-5 melanoma is 8.06 µM; in the assay with LOX IMVI melanoma, 7.28 µM; in the assay on OVCAR-3 ovarian, 15.1 µM. Further, the TGI is 28.5 µM with HCC-2998 colon; 9.35 µM in the assay with RPMI-8226 leukemia; 44.9 µM with NCI-H226 lung; 41.5 µM with OVCAR-8 ovarian; 34.3 µM with HOP-62 NSCLC; 35.5 µM in the assay with EKVX NSCLC. In addition, the TGI with SK-MEL-5 melanoma was 20.4 µM; in the assay on LOX IMVI melanoma, 20.9 µM; with OVCAR-3 ovarian, 31.1 µM.

For `COc1ccc(C(c2ccc(C(C)C)cc(=O)c2O)c2c(O)cc3oc(-c4ccccc4)cc(=O)c3c2O)cc1` (stereo not given), the TGI with HCC-2998 colon was 33.6 µM; with RPMI-8226 leukemia, 37.3 µM; with OVCAR-8 ovarian it was over 100 µM; in the assay on HOP-62 NSCLC, 9.67 µM; with EKVX NSCLC, over 100 µM; in the assay with SK-MEL-5 melanoma it was 29.4 µM. Further, the values for the TGI with LOX IMVI melanoma, in the assay on OVCAR-3 ovarian and with K-562 leukemia were 47.7 µM, 19 µM and 64.3 µM, respectively.

In the case of `Cc1cc(NS(=O)(=O)c2ccc(NC(=O)c3cccc4c(N)c5ccccc5nc34)cc2)no1`, the TGI in the assay on RPMI-8226 leukemia is 62.6 µM; with NCI-H226 lung, 33.4 µM; in the assay on OVCAR-8 ovarian it was 59.4 µM; with HOP-62 NSCLC, 86.9 µM; with EKVX NSCLC, over 100 µM; in the assay on LOX IMVI melanoma it was 65.8 µM. In addition, the results for the TGI in the assay on OVCAR-3 ovarian and in the assay with K-562 leukemia were 52.8 µM and over 100 µM, respectively.

As for `CN1CCN(c2ccc3c4c(cccc24)C(=O)N(CCN2CCN(CCCN4CCN(CCN5C(=O)c6cccc7c(N8CCN(C)CC8)ccc(c67)C5=O)CC4)CC2)C3=O)CC1`, the GI50 was 738 nM with HCC-2998 colon; 861 nM in the assay with RPMI-8226 leukemia; 6 µM in the assay with NCI-H226 lung; 2990 nM in the assay on OVCAR-8 ovarian; 1490 nM with HOP-62 NSCLC; 8.16 µM in the assay on EKVX NSCLC. The GI50 in the assay on SK-MEL-5 melanoma is 8.59 µM; in the assay with LOX IMVI melanoma, 4.56 µM; in the assay on OVCAR-3 ovarian, 8.2 µM. Further, the TGI was 4.4 µM with HCC-2998 colon; 1.89 µM with RPMI-8226 leukemia; 14.4 µM in the assay with NCI-H226 lung; 10.7 µM in the assay on OVCAR-8 ovarian; 6.82 µM with HOP-62 NSCLC; 17.3 µM with EKVX NSCLC. Also, the TGI was 18.6 µM in the assay on SK-MEL-5 melanoma, 11.6 µM in the assay with LOX IMVI melanoma and 15.8 µM with OVCAR-3 ovarian.

As for `CCCCCCCCCCCCCCCC(=O)OCC(O)C1OC(=O)C(O)=C1O` (stereo not given), the TGI with HCC-2998 colon was over 100 µM; in the assay on NCI-H226 lung, 47.1 µM; in the assay on HOP-62 NSCLC, 60.3 µM; in the assay with EKVX NSCLC it was over 100 µM; with SK-MEL-5 melanoma, over 100 µM; in the assay on LOX IMVI melanoma, 46.2 µM. Moreover, the figures for the TGI with OVCAR-3 ovarian and in the assay on K-562 leukemia were over 100 µM and 77.7 µM, respectively.

Regarding `O=c1/c(=C/c2ccc(Cl)cc2Cl)sc2nc3ccccc3n12`, the TGI in the assay with HCC-2998 colon, in the assay with NCI-H226 lung, in the assay on OVCAR-8 ovarian, with HOP-62 NSCLC, with EKVX NSCLC and in the assay on SK-MEL-5 melanoma was over 100 µM throughout. The TGI in the assay on LOX IMVI melanoma, in the assay with OVCAR-3 ovarian and with K-562 leukemia was over 100 µM in each case.

In the case of `CCCCCCCCCCCC(=O)OCC1OC(n2cc(F)c(=O)[nH]c2=O)C(N)C(OC(=O)CCCCCCCCCCC)C1O` (stereo not given), the TGI in the assay with HCC-2998 colon is over 100 µM; in the assay on RPMI-8226 leukemia it was over 100 µM; in the assay on OVCAR-8 ovarian it was over 100 µM; in the assay with HOP-62 NSCLC it was over 100 µM; in the assay on EKVX NSCLC, over 100 µM; with SK-MEL-5 melanoma, 30.5 µM. In addition, the TGI in the assay on LOX IMVI melanoma, in the assay on OVCAR-3 ovarian and in the assay with K-562 leukemia was over 100 µM in each case.

As for `Nc1ccc(Nc2nc(F)nc(-c3c4ccccc4c4n3CCS4)n2)cc1`, the TGI in the assay on HCC-2998 colon was found to be 44.8 µM; in the assay with NCI-H226 lung, 25.9 µM; in the assay with OVCAR-8 ovarian, 37.8 µM; in the assay on HOP-62 NSCLC, 31.3 µM; in the assay on EKVX NSCLC, 48.2 µM; in the assay on SK-MEL-5 melanoma, 25.8 µM. In addition, the TGI in the assay with LOX IMVI melanoma is 24.6 µM; in the assay with OVCAR-3 ovarian it was 34.7 µM.

On to `COc1ccc2[nH]cc(-c3nc(-c4cn(C)c5ccncc45)cs3)c2c1`, for which the GI50 in the assay with HCC-2998 colon was 1880 nM; in the assay on NCI-H226 lung, 18.3 µM; in the assay on OVCAR-8 ovarian it was 2190 nM; in the assay with HOP-62 NSCLC it was 1920 nM; with EKVX NSCLC it was 1.92 µM; in the assay on SK-MEL-5 melanoma it was 1.64 µM. Further, the GI50 in the assay with OVCAR-3 ovarian is 1.85 µM. For the same compound, the TGI with HCC-2998 colon turned out to be 3.42 µM; in the assay on NCI-H226 lung, 45.9 µM; in the assay on OVCAR-8 ovarian it was 4.94 µM; in the assay with HOP-62 NSCLC, 3.63 µM; in the assay on EKVX NSCLC it was 3.92 µM; with SK-MEL-5 melanoma it was 3.04 µM. In the assay with OVCAR-3 ovarian, this compound returned a TGI of 3.41 µM.

As for `O=C(CCC(=O)Nc1ccc(Cl)cc1)CC(=O)c1ccc(F)cc1`, the TGI with HCC-2998 colon, with RPMI-8226 leukemia, in the assay on NCI-H226 lung, in the assay with OVCAR-8 ovarian, in the assay on HOP-62 NSCLC and in the assay on LOX IMVI melanoma was over 100 µM each time. Further, the TGI with OVCAR-3 ovarian and in the assay with K-562 leukemia was over 100 µM throughout.

Regarding `O=c1[nH]c(Br)nc2c(Br)c[nH]c12`, the TGI with RPMI-8226 leukemia, in the assay with NCI-H226 lung, in the assay with OVCAR-8 ovarian, in the assay with HOP-62 NSCLC, with EKVX NSCLC and with SK-MEL-5 melanoma was over 100 µM in each case. For the same compound, the TGI in the assay with LOX IMVI melanoma, in the assay with OVCAR-3 ovarian and in the assay with K-562 leukemia was over 100 µM each time.
